How the values were obtained:
Staphylococcus aureus [1] = assay: Antibacterial activity against Staphylococcus aureus ATCC29213 assessed as inhibition of visible growth incubated for 16 to 18 hrs by CLSI method; format: functional; conditions: time 16-18 hrs, read-out: MIC100
Enterococcus faecalis = assay: Antibacterial activity against Enterococcus faecalis ATCC29212 assessed as inhibition of visible growth incubated for 16 to 18 hrs by CLSI method; format: functional; conditions: time 16-18 hrs, read-out: MIC100
Bacillus subtilis = assay: Antibacterial activity against Bacillus subtilis assessed as inhibition of visible growth incubated for 16 to 18 hrs by CLSI method; format: functional; conditions: time 16-18 hrs, read-out: MIC100
Micrococcus luteus = assay: Antibacterial activity against Micrococcus luteus assessed as inhibition of visible growth incubated for 16 to 18 hrs by CLSI method; format: functional; conditions: time 16-18 hrs, read-out: MIC100
Escherichia coli = assay: Antibacterial activity against Escherichia coli ATCC25922 assessed as inhibition of visible growth incubated for 16 to 18 hrs by CLSI method; format: functional; conditions: time 16-18 hrs, read-out: MIC100
[2] = system: Stenotrophomonas maltophilia; assay: Antibacterial activity against Stenotrophomonas maltophilia assessed as inhibition of visible growth incubated for 16 to 18 hrs by CLSI method; format: functional; conditions: time 16-18 hrs, read-out: MIC100
Salmonella enterica [3] = assay: Antibacterial activity against Salmonella enterica 349812 assessed as inhibition of visible growth incubated for 16 to 18 hrs by CLSI method; format: functional; conditions: time 16-18 hrs, read-out: MIC100
Salmonella enterica [4] = assay: Antibacterial activity against Salmonella enterica 8389 assessed as inhibition of visible growth incubated for 16 to 18 hrs by CLSI method; format: functional; conditions: time 16-18 hrs, read-out: MIC100
[5] = Hemolytic activity in sheep RBC assessed as hemolysis incubated for 1 hr; format: ADME, cell-based, Ovis aries, Erythrocyte; conditions: sheep red blood cells (erythrocytes)
[6] = Selectivity index, HC50 for hemolytic activity in sheep RBC to MIC for antibacterial activity against Staphylococcus aureus ATCC29213; format: toxicity; conditions: sheep red blood cells (erythrocytes), read-out: Selectivity Index
Staphylococcus aureus [7] = assay: Antibacterial activity against methicillin-resistant Staphylococcus aureus clinical isolate M-11 assessed as inhibition of visible growth incubated for 16 to 18 hrs by CLSI method; format: functional; conditions: time 16-18 hrs, read-out: MIC100
Staphylococcus aureus [8] = assay: Antibacterial activity against methicillin-resistant Staphylococcus aureus clinical isolate M-12 assessed as inhibition of visible growth incubated for 16 to 18 hrs by CLSI method; format: functional; conditions: time 16-18 hrs, read-out: MIC100
Staphylococcus aureus [9] = assay: Antibacterial activity against methicillin-resistant Staphylococcus aureus clinical isolate M-13 assessed as inhibition of visible growth incubated for 16 to 18 hrs by CLSI method; format: functional; conditions: time 16-18 hrs, read-out: MIC100
Staphylococcus aureus [10] = assay: Antibacterial activity against methicillin-resistant Staphylococcus aureus clinical isolate M-14 assessed as inhibition of visible growth incubated for 16 to 18 hrs by CLSI method; format: functional; conditions: time 16-18 hrs, read-out: MIC100
Staphylococcus aureus [11] = assay: Antibacterial activity against methicillin-resistant Staphylococcus aureus clinical isolate M-15 assessed as inhibition of visible growth incubated for 16 to 18 hrs by CLSI method; format: functional; conditions: time 16-18 hrs, read-out: MIC100
Staphylococcus aureus [12] = assay: Antibacterial activity against methicillin-resistant Staphylococcus aureus clinical isolate M-16 assessed as inhibition of visible growth incubated for 16 to 18 hrs by CLSI method; format: functional; conditions: time 16-18 hrs, read-out: MIC100
Staphylococcus aureus [13] = assay: Antibacterial activity against methicillin-resistant Staphylococcus aureus clinical isolate M-17 assessed as inhibition of visible growth incubated for 16 to 18 hrs by CLSI method; format: functional; conditions: time 16-18 hrs, read-out: MIC100
Staphylococcus aureus [14] = assay: Antibacterial activity against methicillin-resistant Staphylococcus aureus clinical isolate M-18 assessed as inhibition of visible growth incubated for 16 to 18 hrs by CLSI method; format: functional; conditions: time 16-18 hrs, read-out: MIC100
Staphylococcus aureus [15] = assay: Antibacterial activity against methicillin-resistant Staphylococcus aureus clinical isolate M-19 assessed as inhibition of visible growth incubated for 16 to 18 hrs by CLSI method; format: functional; conditions: time 16-18 hrs, read-out: MIC100
Staphylococcus aureus [16] = assay: Antibacterial activity against methicillin-resistant Staphylococcus aureus clinical isolate M-20 assessed as inhibition of visible growth incubated for 16 to 18 hrs by CLSI method; format: functional; conditions: time 16-18 hrs, read-out: MIC100

Compound | MIC (Staphylococcus aureus [1]) [µg/mL] | MIC (Enterococcus faecalis) [µg/mL] | MIC (Bacillus subtilis) [µg/mL] | MIC (Micrococcus luteus) [µg/mL] | MIC (Escherichia coli) [µg/mL] | MIC [2] [µg/mL] | MIC (Salmonella enterica [3]) [µg/mL] | MIC (Salmonella enterica [4]) [µg/mL] | HC50 at 1 h [5] [µg/mL] | selectivity ratio [6] | MIC (Staphylococcus aureus [7]) [µg/mL] | MIC (Staphylococcus aureus [8]) [µg/mL] | MIC (Staphylococcus aureus [9]) [µg/mL] | MIC (Staphylococcus aureus [10]) [µg/mL] | MIC (Staphylococcus aureus [11]) [µg/mL] | MIC (Staphylococcus aureus [12]) [µg/mL] | MIC (Staphylococcus aureus [13]) [µg/mL] | MIC (Staphylococcus aureus [14]) [µg/mL] | MIC (Staphylococcus aureus [15]) [µg/mL] | MIC (Staphylococcus aureus [16]) [µg/mL]
C=CCc1ccc(O)c(-c2cc(CC=C)ccc2OCCCC[N+](C)(C)CC(=O)NCCCC)c1.[Br-] | 2 | 2 | 0.5 | 0.5 | 8 | 8 | 16 | 16 | 555 | 277 | 4 | 2 | 2 | 2 | 1 | 1 | 2 | 1 | 1 | 1
C=CCc1ccc(O)c(-c2cc(CC=C)ccc2OCC[N+](C)(C)CC(=O)NCCCCC)c1.[Br-] | 8 | 16 | 4 | 4 | 32 | 64 | 64 | 64 | 645 | 80.7 | 16 | 16 | 8 | 8 | 8 | 8 | 8 | 8 | 8 | 8
C=CCc1ccc(OCCCC[N+](C)(C)CC(=O)NCCCCC)c(-c2ccc(OCCCC[N+](C)(C)CC(=O)NCCCCC)c(CC=C)c2)c1.[Br-].[Br-] | 4 | 2 | 2 | 2 | 16 | 16 | 8 | 8 | 448 | 112 | 1 | 2 | 2 | 2 | 2 | 2 | 2 | 2 | 2 | 2
C=CCc1ccc(O)c(-c2cc(CC=C)ccc2OCC[N+](C)(C)CC(=O)NCCCC)c1.[Br-] | 4 | 8 | 2 | 4 | 32 | 32 | 32 | 32 | 573 | 143 | 8 | 8 | 8 | 4 | 4 | 4 | 4 | 4 | 4 | 4
C=CCc1ccc(O)c(-c2cc(CC=C)ccc2OCCCC[N+](C)(C)CC(=O)NCCCCC)c1.[Br-] | 2 | 8 | 2 | 4 | 8 | 32 | 32 | 32 | 643 | 322 | 4 | 4 | 4 | 4 | 4 | 4 | 4 | 4 | 4 | 4
C=CCc1ccc(O)c(-c2cc(CC=C)ccc2OCCCC[N+](C)(C)CC(=O)NCCCCCC)c1.[Br-] | 2 | 4 | 1 | 2 | 16 | 32 | 32 | 64 | 698 | 349 | 8 | 8 | 8 | 8 | 8 | 4 | 4 | 4 | 8 | 4
C=CCc1ccc(OCC[N+](C)(C)CC(=O)NCCCCCC)c(-c2ccc(OCC[N+](C)(C)CC(=O)NCCCCCC)c(CC=C)c2)c1.[Br-].[Br-] | 8 | 4 | 4 | 8 | 32 | 32 | 32 | 32 | 934 | 117 | 8 | 8 | 8 | 8 | 8 | 16 | 4 | 8 | 8 | 4
C=CCc1ccc(O)c(-c2cc(CC=C)ccc2OCC[N+](C)(C)CC(=O)N(CCCC)CCCC)c1.[Br-] | 2 | 4 | 1 | 2 | 8 | 16 | 16 | 16 | 786 | 393 | 4 | 4 | 4 | 4 | 4 | 2 | 2 | 2 | 2 | 2
C=CCc1ccc(O)c(-c2cc(CC=C)ccc2OCCCC[N+](C)(C)CC(=O)N(CCCC)CCCC)c1.[Br-] | 2 | 4 | 1 | 2 | 8 | 32 | 32 | 64 | 712 | 356 | 16 | 16 | 8 | 8 | 8 | 8 | 8 | 8 | 8 | 8
C=CCc1ccc(OCCCC[N+](C)(C)CC(=O)NCCCCCC)c(-c2ccc(OCCCC[N+](C)(C)CC(=O)NCCCCCC)c(CC=C)c2)c1.[Br-].[Br-] | 4 | 2 | 4 | 2 | 16 | 8 | 16 | 8 | 573 | 143 | 2 | 2 | 2 | 8 | 8 | 8 | 4 | 4 | 4 | 4
C=CCc1ccc(OCCC[N+](C)(C)CC(=O)NCC)c(-c2ccc(OCCC[N+](C)(C)CC(=O)NCC)c(CC=C)c2)c1.[Br-].[Br-] | 2 | 4 | 4 | 4 | 16 | 32 | 64 | 32 | 1130 | 567 | 8 | 4 | 4 | 9 | 4 | 2 | 4 | 4 | 4 | 4
C=CCc1ccc(OCCCC[N+](C)(C)CC(=O)NCC)c(-c2ccc(OCCCC[N+](C)(C)CC(=O)NCC)c(CC=C)c2)c1.[Br-].[Br-] | 2 | 2 | 4 | 8 | 4 | 8 | 8 | 32 | 883 | 442 | 16 | 8 | 8 | 8 | 8 | 16 | 8 | 8 | 8 | 8
C=CCc1ccc(O)c(-c2cc(CC=C)ccc2OCCC[N+](C)(C)CC(=O)N(CCCC)CCCC)c1.[Br-] | 2 | 2 | 0.5 | 0.5 | 8 | 8 | 8 | 16 | 764 | 382 | 4 | 4 | 2 | 4 | 2 | 2 | 2 | 2 | 1 | 2

Reference: ChEMBL document CHEMBL4831516, “Development of Membrane-Active Honokiol/Magnolol Amphiphiles as Potent Antibacterial Agents against Methicillin-Resistant Staphylococcus aureus (MRSA)” (J Med Chem, 2021)
